Source: PubChem BioAssay AID2060906 (Molecular Pharmacology Branch, DTP, NCI, 2025)

Tested on: 485176-168-R4-J1-PDC complex spheroid growth
Assay: Anticancer human tumor 485176-168-R4-J1-PDC patient-derived pancreatic adenocarcinoma cell line growth inhibition [RAS]
Conditions: for IC50: curve of first compound; for viability, T/C: stronger effect = lower value
Summary of the method: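 Agents were tested in combination matrices in half-log decrements from a top concentration at or near clinical Cmax (10 microM if undetermined). Targets were multi-cell spheroids of tumour lines plus HUVEC and MSC stromal cells.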
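Also: spheroids exposed to compounds for seven days before readout.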
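For viability, T/C in this document: luminescence viability expressed relative to DMSO vehicle wells set as 100%.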

CC(C)NCC(C(=O)N1CCN(c2ncnc3c2C(C)CC3O)CC1)c1ccc(Cl)cc1 (centres undefined) + C#Cc1c(F)ccc2cc(O)cc(-c3ncc4c(N5CC6CCC(C5)N6)nc(OCC56CCCN5CC(F)C6)nc4c3F)c12
IC50 (second compound 0.0316 µM): 3.29 µM
IC50 (second compound 0.1 µM): 0.851 µM
IC50 (second compound 0.316 µM): 2.77 µM
IC50 (second compound 1 µM): 0.884 µM
IC50 (second compound 3.16 µM): 2.12 µM
IC50 (second compound 10 µM): 1.51 µM
viability, T/C (second compound 0.0316 µM, first compound 0.0316 µM): 113%
viability, T/C (second compound 0.0316 µM, first compound 0.1 µM): 99.2%
viability, T/C (second compound 0.0316 µM, first compound 0.316 µM): 84.7%
viability, T/C (second compound 0.0316 µM, first compound 1 µM): 70.1%
viability, T/C (second compound 0.0316 µM, first compound 3.16 µM): 47.3%
viability, T/C (second compound 0.0316 µM, first compound 10 µM): 38.5%
viability, T/C (second compound 0.1 µM, first compound 0.0316 µM): 99%
viability, T/C (second compound 0.1 µM, first compound 0.1 µM): 127%
viability, T/C (second compound 0.1 µM, first compound 0.316 µM): 72.8%
viability, T/C (second compound 0.1 µM, first compound 1 µM): 59.8%
viability, T/C (second compound 0.1 µM, first compound 3.16 µM): 45.6%
viability, T/C (second compound 0.1 µM, first compound 10 µM): 33.4%
viability, T/C (second compound 0.316 µM, first compound 0.0316 µM): 109%
viability, T/C (second compound 0.316 µM, first compound 0.1 µM): 96.5%
viability, T/C (second compound 0.316 µM, first compound 0.316 µM): 72.7%
viability, T/C (second compound 0.316 µM, first compound 1 µM): 65.4%
viability, T/C (second compound 0.316 µM, first compound 3.16 µM): 51.8%
viability, T/C (second compound 0.316 µM, first compound 10 µM): 31.1%
viability, T/C (second compound 1 µM, first compound 0.0316 µM): 92.2%
viability, T/C (second compound 1 µM, first compound 0.1 µM): 105%
viability, T/C (second compound 1 µM, first compound 0.316 µM): 72.4%
viability, T/C (second compound 1 µM, first compound 1 µM): 51.4%
viability, T/C (second compound 1 µM, first compound 3.16 µM): 48.5%
viability, T/C (second compound 1 µM, first compound 10 µM): 35.3%
viability, T/C (second compound 3.16 µM, first compound 0.0316 µM): 99.3%
viability, T/C (second compound 3.16 µM, first compound 0.1 µM): 96.1%
viability, T/C (second compound 3.16 µM, first compound 0.316 µM): 82.9%
viability, T/C (second compound 3.16 µM, first compound 1 µM): 53.8%
viability, T/C (second compound 3.16 µM, first compound 3.16 µM): 52%
viability, T/C (second compound 3.16 µM, first compound 10 µM): 31%
viability, T/C (second compound 10 µM, first compound 0.0316 µM): 104%
viability, T/C (second compound 10 µM, first compound 0.1 µM): 87.9%
viability, T/C (second compound 10 µM, first compound 0.316 µM): 82.6%
viability, T/C (second compound 10 µM, first compound 1 µM): 55.8%
viability, T/C (second compound 10 µM, first compound 3.16 µM): 36.8%
viability, T/C (second compound 10 µM, first compound 10 µM): 33.9%

Cc1nc(N2CCC3(CC2)COC(C)C3N)c(CO)nc1Sc1ccnc(N)c1Cl (centres undefined) + CCn1c(-c2cccnc2C(C)OC)c2c3cc(ccc31)N1CCOC(CC(NC(=O)C(C(C)C)N(C)C(=O)C3(F)CCN(C(=O)C#CC(C)(C)N(C)C)CC3)C(=O)N3CCCC(N3)C(=O)OCC(C)(C)C2)C1
IC50 (second compound 0.000949 µM): > 10 µM
IC50 (second compound 0.003 µM): > 10 µM
IC50 (second compound 0.00949 µM): > 10 µM
IC50 (second compound 0.03 µM): > 10 µM
IC50 (second compound 0.0949 µM): > 10 µM
IC50 (second compound 0.3 µM): > 10 µM
viability, T/C (second compound 0.000949 µM, first compound 0.0316 µM): 96.6%
viability, T/C (second compound 0.000949 µM, first compound 0.1 µM): 87.4%
viability, T/C (second compound 0.000949 µM, first compound 0.316 µM): 84%
viability, T/C (second compound 0.000949 µM, first compound 1 µM): 85.1%
viability, T/C (second compound 0.000949 µM, first compound 3.16 µM): 89.1%
viability, T/C (second compound 0.000949 µM, first compound 10 µM): 79.4%
viability, T/C (second compound 0.003 µM, first compound 0.0316 µM): 93.1%
viability, T/C (second compound 0.003 µM, first compound 0.1 µM): 103%
viability, T/C (second compound 0.003 µM, first compound 0.316 µM): 81%
viability, T/C (second compound 0.003 µM, first compound 1 µM): 68.9%
viability, T/C (second compound 0.003 µM, first compound 3.16 µM): 82%
viability, T/C (second compound 0.003 µM, first compound 10 µM): 71%
viability, T/C (second compound 0.00949 µM, first compound 0.0316 µM): 110%
viability, T/C (second compound 0.00949 µM, first compound 0.1 µM): 92.9%
viability, T/C (second compound 0.00949 µM, first compound 0.316 µM): 94.7%
viability, T/C (second compound 0.00949 µM, first compound 1 µM): 77.6%
viability, T/C (second compound 0.00949 µM, first compound 3.16 µM): 87.6%
viability, T/C (second compound 0.00949 µM, first compound 10 µM): 64.3%
viability, T/C (second compound 0.03 µM, first compound 0.0316 µM): 93.3%
viability, T/C (second compound 0.03 µM, first compound 0.1 µM): 91.2%
viability, T/C (second compound 0.03 µM, first compound 0.316 µM): 92.2%
viability, T/C (second compound 0.03 µM, first compound 1 µM): 69.2%
viability, T/C (second compound 0.03 µM, first compound 3.16 µM): 74.8%
viability, T/C (second compound 0.03 µM, first compound 10 µM): 73.9%
viability, T/C (second compound 0.0949 µM, first compound 0.0316 µM): 97.3%
viability, T/C (second compound 0.0949 µM, first compound 0.1 µM): 85.4%
viability, T/C (second compound 0.0949 µM, first compound 0.316 µM): 72.3%
viability, T/C (second compound 0.0949 µM, first compound 1 µM): 87.3%
viability, T/C (second compound 0.0949 µM, first compound 3.16 µM): 70.8%
viability, T/C (second compound 0.0949 µM, first compound 10 µM): 85.5%
viability, T/C (second compound 0.3 µM, first compound 0.0316 µM): 71.7%
viability, T/C (second compound 0.3 µM, first compound 0.1 µM): 65.4%
viability, T/C (second compound 0.3 µM, first compound 0.316 µM): 60.2%
viability, T/C (second compound 0.3 µM, first compound 1 µM): 66%
viability, T/C (second compound 0.3 µM, first compound 3.16 µM): 70.8%
viability, T/C (second compound 0.3 µM, first compound 10 µM): 66.2%
